# PubChem BioAssay (NCI)
#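 These data come from cells grown in 96-well plates and exposed to compound for 48 hours at five concentrations. GI50 = concentration required for 50% inhibition of growth. TGI is the concentration that stops growth completely.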
# Legend:
# Experiment in all cases: DTP human tumour cell line panel, 48 h
# [1] = test system: ACHN renal
# [2] = test system: RPMI-8226 leukemia
# [3] = test system: U251 CNS
# [4] = test system: OVCAR-4 ovarian
# [5] = test system: SF-268 CNS
# [6] = test system: UACC-62 melanoma
# [7] = test system: K-562 leukemia
# [8] = test system: NCI-H460 lung
# [9] = test system: HCT-116 colon
# [10] = test system: SK-MEL-2 melanoma
# [11] = test system: SF-295 CNS
# [12] = test system: UACC-257 melanoma
# [13] = test system: NCI-H226 lung
# [14] = test system: MOLT-4 leukemia
# [15] = test system: OVCAR-5 ovarian
# [16] = test system: NCI-H522 lung
# [17] = test system: OVCAR-3 ovarian
# [18] = test system: SR leukemia
# [19] = test system: IGROV1 ovarian
# [20] = test system: SW-620 colon
# [21] = test system: HT29 colon
# [22] = test system: HCC-2998 colon
# [23] = test system: A498 renal
# [24] = test system: RXF 393 renal
# [25] = test system: MALME-3M melanoma
# [26] = test system: NCI/ADR-RES ovarian
# [27] = test system: BT-549 breast
# [28] = test system: NCI-H23 lung
# [29] = test system: SK-MEL-28 melanoma
# [30] = test system: UO-31 renal
# [31] = test system: EKVX NSCLC
# [32] = test system: CAKI-1 renal
# [33] = test system: T-47D breast
# [34] = test system: DU-145 prostate
# [35] = test system: M14 melanoma
# [36] = test system: SK-MEL-5 melanoma
# [37] = test system: A549 NSCLC
# [38] = test system: SNB-19 CNS
# [39] = test system: LOX IMVI melanoma
# [40] = test system: SF-539 CNS
# [41] = test system: MCF7 breast
# [42] = test system: HOP-62 NSCLC
# [43] = test system: MDA-MB-231 breast
# [44] = test system: SN12C renal
# [45] = test system: TK-10 renal
# [46] = test system: SK-OV-3 ovarian
# [47] = test system: COLO 205 colon
# [48] = test system: HS 578T breast
# [49] = test system: HOP-92 NSCLC
# [50] = test system: HL-60(TB) leukemia
# [51] = test system: CCRF-CEM leukemia
# [52] = test system: 786-0 renal
# [53] = test system: KM12 colon
# [54] = test system: HCT-15 colon
# [55] = test system: OVCAR-8 ovarian
# [56] = test system: MDA-MB-435
# [57] = test system: SNB-75 CNS
# [58] = test system: PC-3 prostate
compound,measurement,setting,value
CC(=O)OC1Oc2ccccc2-c2oc(=O)c(-c3ccc(F)cc3)cc21 (stereo unspecified),GI50,[1],31.8 µM
same,TGI,[1],> 100 µM
same,GI50,[2],24.6 µM
same,TGI,[2],60.3 µM
same,GI50,[3],16.8 µM
same,TGI,[3],> 100 µM
same,GI50,[4],28.2 µM
same,TGI,[4],> 100 µM
same,GI50,[5],29.6 µM
same,TGI,[5],> 100 µM
same,GI50,[6],10.8 µM
same,TGI,[6],33.6 µM
same,GI50,[7],17.1 µM
same,TGI,[7],> 100 µM
same,GI50,[8],25.2 µM
same,TGI,[8],> 100 µM
same,GI50,[9],31.5 µM
same,TGI,[9],> 100 µM
same,GI50,[10],39.5 µM
same,TGI,[10],> 100 µM
same,GI50,[11],23.3 µM
same,TGI,[11],> 100 µM
same,GI50,[12],35.5 µM
same,TGI,[12],> 100 µM
same,GI50,[13],29.7 µM
same,TGI,[13],78.1 µM
same,GI50,[14],14 µM
same,TGI,[14],31.1 µM
same,GI50,[15],66.5 µM
same,TGI,[15],> 100 µM
same,GI50,[16],20.2 µM
same,TGI,[16],78.3 µM
same,GI50,[17],23.2 µM
same,TGI,[17],71.7 µM
same,GI50,[18],2.86 µM
same,TGI,[18],9.08 µM
same,GI50,[19],33.5 µM
same,TGI,[19],> 100 µM
same,GI50,[20],19 µM
same,TGI,[20],> 100 µM
same,GI50,[21],21.6 µM
same,TGI,[21],> 100 µM
same,GI50,[22],24.8 µM
same,TGI,[22],> 100 µM
same,GI50,[23],28.3 µM
same,TGI,[23],71.9 µM
same,GI50,[24],26.8 µM
same,TGI,[24],99.7 µM
same,GI50,[25],21.9 µM
same,TGI,[25],70.7 µM
same,GI50,[26],60 µM
same,TGI,[26],> 100 µM
same,GI50,[27],23.8 µM
same,TGI,[27],69.1 µM
same,GI50,[28],40.7 µM
same,TGI,[28],> 100 µM
same,GI50,[29],32.6 µM
same,TGI,[29],> 100 µM
same,GI50,[30],32.8 µM
same,TGI,[30],> 100 µM
same,GI50,[31],9.46 µM
same,TGI,[31],83.3 µM
same,GI50,[32],30.9 µM
same,TGI,[32],> 100 µM
same,GI50,[33],22.5 µM
same,TGI,[33],93.3 µM
same,GI50,[34],29 µM
same,TGI,[34],> 100 µM
same,GI50,[35],25.3 µM
same,TGI,[35],95.8 µM
same,GI50,[36],14.9 µM
same,TGI,[36],31 µM
same,GI50,[37],38.8 µM
same,TGI,[37],> 100 µM
same,GI50,[38],30.6 µM
same,TGI,[38],> 100 µM
same,GI50,[39],16.6 µM
same,TGI,[39],73.2 µM
same,GI50,[40],24.6 µM
same,TGI,[40],74.6 µM
same,GI50,[41],6.01 µM
same,TGI,[41],40 µM
same,GI50,[42],8.79 µM
same,TGI,[42],40.2 µM
same,GI50,[43],33.9 µM
same,TGI,[43],> 100 µM
same,GI50,[44],35.1 µM
same,TGI,[44],> 100 µM
same,GI50,[45],26.7 µM
same,TGI,[45],83.8 µM
same,GI50,[46],35 µM
same,TGI,[46],> 100 µM
same,GI50,[47],36.3 µM
same,TGI,[47],> 100 µM
same,GI50,[48],10.4 µM
same,TGI,[48],74.7 µM
same,GI50,[49],29.6 µM
same,TGI,[49],96.9 µM
same,GI50,[50],24.9 µM
same,TGI,[50],> 100 µM
same,GI50,[51],23.4 µM
same,TGI,[51],55.2 µM
same,GI50,[52],17.7 µM
same,TGI,[52],77.3 µM
same,GI50,[53],12.2 µM
same,TGI,[53],43 µM
same,GI50,[54],20.9 µM
same,TGI,[54],> 100 µM
same,GI50,[55],36.3 µM
same,TGI,[55],> 100 µM
same,GI50,[56],4.33 µM
same,TGI,[56],40.3 µM
same,GI50,[57],5.59 µM
same,TGI,[57],41.7 µM
same,GI50,[58],32.7 µM
same,TGI,[58],> 100 µM
